# Laboratory results reported in PubChem BioAssay (NCI).
#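 Briefly, cells in 96-well plates were exposed to five compound concentrations for 48 h, and endpoints were estimated by linear interpolation. At the TGI there is no net growth.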
# Columns and labels:
# Assay in all cases: NCI tumour cell line growth inhibition, 48 h
# [1] = tested on: T-47D breast
# [2] = tested on: HCC-2998 colon
# [3] = tested on: MDA-MB-231 breast
# [4] = tested on: K-562 leukemia
# [5] = tested on: DU-145 prostate
# [6] = tested on: A549 NSCLC
# [7] = tested on: PC-3 prostate
# [8] = tested on: LOX IMVI melanoma
# [9] = tested on: HL-60(TB) leukemia
# [10] = tested on: NCI-H226 lung
# [11] = tested on: SN12C renal
# [12] = tested on: NCI/ADR-RES ovarian
# [13] = tested on: SW-620 colon
# [14] = tested on: M14 melanoma
# [15] = tested on: SK-MEL-2 melanoma
# [16] = tested on: SK-OV-3 ovarian
SMILES,TGI [1] [µM],TGI [2] [µM],TGI [3] [µM],TGI [4] [µM],TGI [5] [µM],TGI [6] [µM],TGI [7] [µM],TGI [8] [µM],TGI [9] [µM],TGI [10] [µM],TGI [11] [µM],TGI [12] [µM],TGI [13] [µM],TGI [14] [µM],TGI [15] [µM],TGI [16] [µM]
CC(C)(C)c1ccc(-n2c3nc(=O)n(-c4ccccc4CO)c(=O)c-3cc3ccccc32)cc1,> 100,> 100,> 100,> 100,> 100,> 100,> 100,37.9,56.1,> 100,> 100,> 100,> 100,> 100,–,–
COC(=O)CN1SC2(SC13C(C)(C)C(=O)C3(C)C)C(C)(C)C(=O)C2(C)C,> 100,> 100,> 100,> 100,> 100,> 100,> 100,> 100,–,93.8,> 100,87.8,> 100,> 100,> 100,> 100
Cc1ccc(C)n1-c1ccccc1C1C=CN(C(=O)OC(C)(C)C)C=C1,–,34,53.3,> 100,> 100,> 100,> 100,37.4,> 100,31.5,> 100,> 100,41.7,> 100,35.6,> 100
Nc1ccc(CCSSCCc2ccc(N)cc2)cc1,> 92.3,34.4,> 91.1,> 62.3,> 87.4,> 100,> 78.9,> 59.8,–,> 100,60.1,> 74.4,> 76.8,> 74.2,43.4,> 100
Cc1ccc2c(c1)CC1(Cc3c(C)cccc3C1=O)C2=O (centres undefined),> 100,> 100,> 100,> 100,> 100,> 100,> 100,> 100,> 100,> 100,> 100,> 100,> 100,> 100,–,> 100
CN(C(=O)C1CCCCCC1=O)c1ccccc1Cl (centres undefined),> 100,–,> 100,–,> 100,> 100,–,> 100,–,> 100,> 100,> 100,> 100,> 100,–,> 100
COc1cc([C@H]2CC(=O)C[C@H](c3cc(OC)c(OC)c(OC)c3)C23C(=O)c2ccccc2C3=O)cc(OC)c1OC,> 100,> 100,> 100,> 100,> 100,> 100,> 100,–,–,> 100,> 100,> 100,> 100,> 100,> 100,> 100
Cc1ccc(N2CCC3(CC2)OCCO3)cc1,> 100,> 100,> 100,> 100,> 100,> 100,> 100,–,> 100,> 100,> 100,> 100,> 100,> 100,> 100,> 100
